Literature values as cited in patent US7378261B2, “Method for preparing para-hydroxystyrene by biocatalytic decarboxylation of para-hydroxycinnamic acid in a biphasic reaction medium” (E.I. du Pont de Nemours and Company, priority 2003, dated 2008).

Details: logarithm of solvent's partition coefficient in standard octanol:water mixture

Row | SMILES | log P
1 | CCCCCCCCC(C)O (centres unmarked) [2-decanol] | 3.71
2 | CCCCCCCC(C)O (centres unmarked) [2-nonanol] | 3.22
3 | CCCCCCCCCC(C)=O [2-undecanone] | 4.21

Results, then the molecule that gave them:

Row | log P | SMILES
4 | 2.24 | CCCCCC(C)O (centres unmarked) [2-heptanol]
5 | 3.2 | CCCCCCCC(=O)CC [3-decanone]
6 | 3.71 | CCCCCCC(O)CCC (centres unmarked) [4-decanol]
7 | 3.2 | CCCCCCC(=O)CCC [4-decanone]
8 | 3.9 | CCCCCC [hexane]
